The text below walks through data of patent publication US20230227449A1, “AMIDOPYRIMIDONE DERIVATIVES” (Hoffmann-La Roche Inc., priority 2020, published 2023).

The structures appear in SMILES notation.

In the experiment the target is Recombinant human Mat2a (Homo sapiens, UniProt P31153). Put plainly: Determination of Mat2A activity (384 well absorbance-based assay, Biomol Green). Type of experiment: biochemical. The settings on record: 12.5 nM Mat2A, 100 μM ATP and Methionine, 2% DMSO, 120 minutes at RT, absorbance at 635 nm. In outline: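 Recombinant human Mat2A (12.5 nM) was preincubated with compound for 15 min at RT in HEPES pH 7.5 buffer with 2% DMSO. The reaction was started with 100 μM each of ATP and methionine and ran 120 min at RT. Phosphate was detected with Biomol Green by absorbance at 635 nm.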
Recombinant human Mat2a, sequence (P31153 whole entry): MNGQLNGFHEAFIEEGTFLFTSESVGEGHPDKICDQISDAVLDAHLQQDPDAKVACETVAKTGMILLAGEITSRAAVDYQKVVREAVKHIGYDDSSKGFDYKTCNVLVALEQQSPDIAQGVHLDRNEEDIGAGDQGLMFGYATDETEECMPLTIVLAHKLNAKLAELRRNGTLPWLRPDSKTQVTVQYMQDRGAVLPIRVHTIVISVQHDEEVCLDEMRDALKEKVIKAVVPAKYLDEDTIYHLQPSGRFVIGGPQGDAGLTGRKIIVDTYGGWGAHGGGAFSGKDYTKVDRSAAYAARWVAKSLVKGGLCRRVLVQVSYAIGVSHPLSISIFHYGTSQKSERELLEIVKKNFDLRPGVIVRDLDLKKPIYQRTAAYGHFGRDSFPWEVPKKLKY
As to `Nc1nc(=O)n(-c2cccc(OC(F)F)n2)c2nc(C3CC3)ccc12` [Example 108, 4-amino-7-cyclopropyl-1-(6-(difluoromethoxy)pyridin-2-yl)pyrido[2,3-d]pyrimidin-2 (1H)-one], the IC50 (in general, the concentration at which inhibition is half-maximal) was less than 13 nM.

Take `Nc1nc(=O)n(-c2cccnc2Cl)c2cc(OC(F)(F)F)ccc12` [Example 109, 4-amino-1-(2-chloro-3-pyridyl)-7-(trifluoromethoxy)quinazolin-2-one]: the IC50 was 16 nM.

`Nc1nc(=O)n(-c2ccccc2OC(F)(F)F)c2nc(C3CC3)ccc12` [Example 110, 4-amino-7-cyclopropyl-1-[2-(trifluoromethoxy)phenyl]pyrido[2,3-d]pyrimidin-2-one]: the half-inhibitory concentration (IC50) is less than 13 nM.

Take `Nc1nc(=O)c(-c2ccccc2Cl)c2cc(C3CC3)ccn12` [Example 111, 4-(2-chlorophenyl)-6-cyclopropyl-1-imino-pyrido[1,2-c]pyrimidin-3-one]: the IC50 was less than 13 nM.

As for `Nc1nc(=O)n(C2CCn3cncc32)c2nc(C3CC3)ccc12` (centres unmarked) [Example 112, 4-amino-7-cyclopropyl-1-(6,7-dihydro-5H-pyrrolo[1,2-c]imidazol-7-yl)pyrido[2,3-d]pyrimidin-2-one], the IC50 came out at 39 nM.

As to `Cc1ccccc1-n1c(=O)nc(N)c2cc(OC(F)F)c(C3CC3)nc21` [Example 113, 4-amino-7-cyclopropyl-6-(difluoromethoxy)-1-(o-tolyl)pyrido[2,3-d]pyrimidin-2-one], the IC50 is 14 nM.

`C[C@H]1OCCC[C@@H]1n1c(=O)nc(N)c2ccc(C3CC3)nc21` [Example 118, 4-amino-7-cyclopropyl-1-((2R,3S)-2-methyltetrahydro-2H-pyran-3-yl)pyrido[2,3-d]pyrimidin-2 (1H)-one]: the half-maximal inhibitory concentration (IC50) turned out to be 13 nM.

Turning to `C[C@@H]1OCCC[C@H]1n1c(=O)nc(N)c2ccc(C3CC3)nc21` [Example 119, 4-amino-7-cyclopropyl-1-((2S,3R)-2-methyltetrahydro-2H-pyran-3-yl)pyrido[2,3-d]pyrimidin-2 (1H)-one], the IC50 is less than 13 nM.

In the case of `Nc1nc(=O)n(-c2cccc3ncsc23)c2nc(C3CC3)ccc12` [Example 120], the IC50 is less than 13 nM.

Turning to `Cc1c(F)cccc1-n1c(=O)nc(N)c2ccc(OC(F)F)cc21` [Example 122, 4-amino-7-(difluoromethoxy)-1-(3-fluoro-2-methylphenyl)quinazolin-2 (1H)-one], the IC50 is less than 13 nM.

As for `Cc1c(O)cccc1-n1c(=O)nc(N)c2ccc(C3CC3)nc21` [Example 123, 4-amino-7-cyclopropyl-1-(3-hydroxy-2-methylphenyl)pyrido[2,3-d]pyrimidin-2 (1H)-one], the IC50 stood at 13 nM.

On to `Nc1nc(=O)n([C@@H]2CCCCOC2)c2nc(C3CC3)ccc12` [Example 124, (R)-4-amino-7-cyclopropyl-1-(oxepan-3-yl)pyrido[2,3-d]pyrimidin-2 (1H)-one], for which the IC50 is less than 13 nM.

As to `Nc1nc(=O)n([C@H]2CCCCOC2)c2nc(C3CC3)ccc12` [Example 125, (S)-4-amino-7-cyclopropyl-1-(oxepan-3-yl)pyrido[2,3-d]pyrimidin-2 (1H)-one], the IC50 amounted to 40 nM.

Regarding `N#Cc1cccc(-n2c(=O)nc(N)c3ccc(C4CC4)nc32)c1F` [Example 126, 3-(4-amino-7-cyclopropyl-2-oxopyrido[2,3-d]pyrimidin-1 (2H)-yl)-2-fluorobenzonitrile], the IC50 is less than 13 nM.

For `Cc1cccc(-n2c(=O)nc(N)c3ccc(C4CC4)nc32)c1F` [Example 127, 4-amino-7-cyclopropyl-1-(2-fluoro-3-methylphenyl)pyrido[2,3-d]pyrimidin-2 (1H)-one], the 50% inhibitory concentration (IC50) worked out at 13 nM.

Consider `Nc1nc(=O)n(-c2cccc(Cl)c2Cl)c2nc(C3CC3)ccc12` [Example 128, 4-amino-7-cyclopropyl-1-(2,3-dichlorophenyl)pyrido[2,3-d]pyrimidin-2 (1H)-one], for which the IC50 is less than 13 nM.

Turning to `Cc1c(Cl)cccc1-n1c(=O)nc(N)c2ccc(C3CC3)nc21` [Example 129, 4-amino-1-(3-chloro-2-methylphenyl)-7-cyclopropylpyrido[2,3-d]pyrimidin-2-one], the IC50 is less than 13 nM.

Take `Cc1cccc(-n2c(=O)nc(N)c3ccc(C4CC4)nc32)c1Cl` [Example 130, 4-amino-1-(2-chloro-3-methylphenyl)-7-cyclopropylpyrido[2,3-d]pyrimidin-2-one]: the IC50 was less than 13 nM.

`Cc1c(CF)cccc1-n1c(=O)nc(N)c2ccc(C3CC3)nc21` [Example 131, 4-amino-7-cyclopropyl-1-(3-(fluoromethyl)-2-methylphenyl)pyrido[2,3-d]pyrimidin-2 (1H)-one]: the IC50 is less than 13 nM.

As to `Nc1nc(=O)n(-c2ccccc2C(F)(F)F)c2nc(C3CC3)ccc12` [Example 132, 4-amino-7-cyclopropyl-1-(2-(trifluoromethyl)phenyl)pyrido[2,3-d]pyrimidin-2 (1H)-one], the IC50 is less than 13 nM.

`Cc1cccc(-n2c(=O)nc(N)c3ccc(OC(F)F)cc32)c1F` [Example 133, 4-amino-7-(difluoromethoxy)-1-(2-fluoro-3-methylphenyl)quinazolin-2 (1H)-one]: the IC50 is 26 nM.

As to `Cc1cccc(-n2c(=O)nc(N)c3ccc(OC(F)F)cc32)c1` [Example 134, 4-amino-7-(difluoromethoxy)-1-(m-tolyl)quinazolin-2 (1H)-one], the IC50 is 20 nM.

As for `Nc1nc(=O)n(-c2cccnc2Cl)c2cc(OC(F)F)ccc12` [Example 137, 4-amino-1-(2-chloropyridin-3-yl)-7-(difluoromethoxy)quinazolin-2 (1H)-one], the IC50 was less than 13 nM.

Take `Cc1cccc(-n2c(=O)nc(N)c3ccc(C4CC4)nc32)c1C` [Example 138, 4-amino-7-cyclopropyl-1-(2,3-dimethylphenyl)pyrido[2,3-d]pyrimidin-2 (1H)-one]: the 50% inhibitory concentration (IC50) was less than 13 nM.

For `Nc1nc(=O)n(-c2cccc3[nH]ncc23)c2nc(C3CC3)ccc12` [Example 139, 4-amino-7-cyclopropyl-1-(1H-indazol-4-yl)pyrido[2,3-d]pyrimidin-2 (1H)-one], the IC50 is less than 13 nM.

Regarding `Nc1nc(=O)n([C@@H]2CCCOC23CC3)c2nc(C3CC3)ccc12` [Example 141, 4-amino-7-cyclopropyl-1-[(8R)-4-oxaspiro[2.5]octan-8-yl]pyrido[2,3-d]pyrimidin-2-one], the IC50 is less than 13 nM.

For `Nc1nc(=O)n([C@H]2CCCOC23CC3)c2nc(C3CC3)ccc12` [Example 142, 4-amino-7-cyclopropyl-1-[(8S)-4-oxaspiro[2.5]octan-8-yl]pyrido[2,3-d]pyrimidin-2-one], the 50% inhibitory concentration (IC50) is less than 13 nM.

Take `N#Cc1cccc(-n2c(=O)nc(N)c3ccc(C4CC4)nc32)c1Cl` [Example 143, 3-(4-amino-7-cyclopropyl-2-oxopyrido[2,3-d]pyrimidin-1 (2H)-yl)-2-chlorobenzonitrile]: the IC50 was less than 13 nM.

Consider `Cc1ccccc1-n1c(=O)nc(N)c2ccc(OC(F)F)cc21` [Example 144, 4-amino-7-(difluoromethoxy)-1-(o-tolyl)quinazolin-2 (1H)-one], for which the half-inhibitory concentration (IC50) is less than 13 nM.

`Nc1nc(=O)n(-c2ccc(F)c(F)c2)c2nc(C3CC3)ccc12` [Example 147, 4-amino-7-cyclopropyl-1-(3,4-difluorophenyl)pyrido[2,3-d]pyrimidin-2 (1H)-one]: the IC50 stood at 31 nM.

For the compound `Nc1nc(=O)c(-c2ccccc2Cl)c2cc(C(F)(F)F)ccn12` [Example 149, 1-amino-4-(2-chlorophenyl)-6-(trifluoromethyl)pyrido[1,2-c]pyrimidin-3-one], the IC50 worked out at 24 nM.

On to `Nc1nc(=O)n(C2CCCOC23CC3)c2cc(OC(F)F)ccc12` (centres unmarked) [Example 150, 4-amino-7-(difluoromethoxy)-1-(4-oxaspiro[2.5]octan-8-yl)quinazolin-2 (1H)-one], for which the IC50 was 130 nM.

For `N#Cc1cccc(-n2c(=O)nc(N)c3ccc(C4CC4)nc32)c1` [Example 151, 3-(4-amino-7-cyclopropyl-2-oxopyrido[2,3-d]pyrimidin-1 (2H)-yl)benzonitrile], the IC50 is less than 13 nM.

Regarding `Nc1nc(=O)n(-c2cccc(Cl)c2)c2nc(C3CC3)ccc12` [Example 152, 4-amino-1-(3-chlorophenyl)-7-cyclopropylpyrido[2,3-d]pyrimidin-2 (1H)-one], the IC50 was 14 nM.

As to `CCNc1ccc2c(N)nc(=O)n(-c3ccccc3C)c2c1` [Example 153, 4-amino-7-(ethylamino)-1-(o-tolyl)quinazolin-2-one], the IC50 amounted to 17 nM.

In the case of `Nc1nc(=O)n(-c2cc(F)ccc2F)c2nc(C3CC3)ccc12` [Example 154, 4-amino-7-cyclopropyl-1-(2,5-difluorophenyl)pyrido[2,3-d]pyrimidin-2 (1H)-one], the IC50 stood at 20 nM.

On to `Nc1nc(=O)n(-c2ccc(F)cc2Cl)c2nc(C3CC3)ccc12` [Example 155, 4-amino-1-(2-chloro-4-fluorophenyl)-7-cyclopropylpyrido[2,3-d]pyrimidin-2 (1H)-one], for which the IC50 amounted to 16 nM.

With `Nc1nc(=O)n(-c2cc(F)ccc2Cl)c2nc(C3CC3)ccc12` [Example 156, 4-amino-1-(2-chloro-5-fluorophenyl)-7-cyclopropylpyrido[2,3-d]pyrimidin-2-one], the 50% inhibitory concentration (IC50) turned out to be 21 nM.

Turning to `Nc1nc(=O)n(-c2cccc3c2CCN3)c2nc(C3CC3)ccc12` [Example 157, 4-amino-7-cyclopropyl-1-(2,3-dihydro-1H-indol-4-yl)pyrido[2,3-d]pyrimidin-2-one], the IC50 was 15 nM.

`Cc1c(C#N)cccc1-n1c(=O)nc(N)c2ccc(OC(F)(F)F)cc21` [Example 158, 3-[4-amino-2-oxo-7-(trifluoromethoxy)quinazolin-1-yl]-2-methylbenzonitrile]: the IC50 was found to be 25 nM.

As for `Cc1c(F)cccc1-n1c(=O)nc(N)c2ccc(OC(F)(F)F)cc21` [Example 159, 4-amino-1-(3-fluoro-2-methylphenyl)-7-(trifluoromethoxy)quinazolin-2-one], the IC50 was found to be 19 nM.
